# Where two headings read alike, the source gives them in different places.
# Assays:
# HepG2 = assay: MTT cytotoxicity assay, HepG2; type: cell-based; conditions: Homo sapiens, HepG2, 72 h
# Experimental: (§1) All cell lines were obtained from the American Type Culture Collection (ATCC) and cultured in the specified medium supplemented with 10% fetal bovine serum, 100 IU/mL penicillin, and 100 μg/mL streptomycin at 37°C in a humidified 5% CO2/95% air incubator. Synthesis of new compounds is described in S1 File, and >95% purity of RA475, Up284 and its analogs were confirmed by NMR and MS. To assess drug cytotoxicity, cells were seeded at 2,500 cells/well (10,000 cells/well for MM lines) in 100 μL medium in 96-well plate as triplicates and after 24 h treated with compounds for a further 72 h. To assess cytotoxicity, the cells were incubated for 2 h at 37°C according to the manufacturer’s protocol with the Thiazolyl Blue Tetrazolium Bromide (20 μL/well of 5 mg/mL stock solution in water) (Sigma, M5655) and A570 measured using a Benchmark Plus microplate spectrophotometer (BIO-RAD). IC50 was estimated using Graphpad Prism 7 software.
# MC38 = assay: MTT cytotoxicity assay, MC38; type: cell-based; conditions: Mus musculus, MC-38, MC38, 72 h
# Experimental: as §1
# SKMEL2 = assay: MTT cytotoxicity assay, SKMEL2; type: cell-based; conditions: Homo sapiens
# Experimental: as §1
# PEA1 cells = assay: MTT cytotoxicity assay, PEA1; type: cell-based, human; conditions: for IC50: Homo sapiens, PEA1, 72 h
# Experimental: as §1
# Modifications of Up284 were sought to improve its drug-like properties without significant compromise of its activity in vivo, and several new compounds were synthesized (S1 File). Based on our prior studies of its pharmacophore, the central ring nitrogen was the most logical for addition of charged moieties, including RA475 and RA484. We also examined a change to either 3,4 spiro rings (RA477, RA479), or addition of 3-Fluoro substitutions (RA482) (S1 File). Our focus is developing iRPN13 to treat ovarian cancer resistant to standard of care drug regimens.
# A wash-out experiment was performed to assess reversibility of the toxicity. PEA1 cells were treated with RA475 for 1 h before the medium was replaced with fresh culture medium, and the cells were then allowed to grow for another 71 hours (PEA1-WO). In parallel, PEA1 cells were incubated with RA475 continuously for 72 h. […] Possible reasons include slow uptake of RA475, reversible binding and neutralization by antioxidants in the medium.
# To study the effect of RA475 in combination with approved therapeutics (DNA damaging agents or radiation) an MTT assay was performed using various concentrations of both drugs. Briefly PEA1 and OVCAR3 cells were each treated with drug combination (RA475 plus cisplatin) for 72 h in a checker board analysis and cell viability was measured using MTT assay. The data were analyzed and plotted using the Synergy Finder web application.
# A549 = assay: MTT cytotoxicity assay, A549; type: cell-based; conditions: Homo sapiens, A549, 72 h
# Experimental: as §1
# HFF = assay: MTT cytotoxicity assay, HFF; type: cell-based; conditions: Homo sapiens, HFF (normal cells), 72 h
# Experimental: as §1
# [1] = test system: high molecular weight polyubiquitinated proteins in SKOV3 cells; assay: Anti-ubiquitin immunoblot, SKOV3; type: cell-based; conditions: Up284 and RA475 0.5 and 1 μM, RA190 1 μM
# From the text: (§2) Cell lysate prepared in MPER (Pierce) from each sample was normalized by total protein concentration using the bicinchoninic acid assay and bovine serum albumin standards. Normalized samples were subjected to SDS-PAGE, transferred to PVDF membranes and analyzed by Western blot using antibodies specific to ubiquitin (P4D1, sc-8017, Santa Cruz), PARP (#9542, […]), actin (#66009, Protein Tech Group), Tubulin(#66031, Protein Tech Group), ADRM1/RPN13 (D9Z1U, #12019, Cell Signaling), USP14 (Cell Signal, # 8159), Annexin V (#559763, BD Pharmingen), and for secondary antibodies we utilized either horseradish peroxidase (HRP)-linked anti-mouse IgG or anti-rabbit IgG (GE Healthcare UK Ltd), HRP-linked streptavidin (N100, Thermo Fisher) at the recommended dilution (1:5000).
# (§3) Accumulation of high molecular weight polyubiquitinated proteins (polyUb) is a classical phenomenon of proteasome function inhibition due to the stabilization of its substrate.
# Fig 3 Impact of RA475 on proteasome function. […] Actin was used as loading control. […] C) 4T1 and HCC1806 cells stably expressing 4UbFL were treated with compounds at indicated doses for 4 h and imaged by IVIS200 after the addition of luciferin substrate (50 μL, 7mg/mL in PBS). […] After a 4 h incubation, the cells were lysed and the luciferase activity in each cell lysate was determined with a luciferase assay kit (Promega) according to the manufacturer’s instructions. Bioluminescence was measured by using a luminometer (Glomax Multidetection system, Promega) E) A patch was shaved of hair on one leg of CD-1 mice, and 10 μg 4UbFL plasmid in 20 μL of PBS was injected into the quadriceps femoralis muscle followed immediately by injection of the 2 Needle Array to 5 mm depth encompassing the injection site and square wave electroporation (ElectroSquarePorator 833, BTX-2 Needle array 5mm gap, Harvard apparatus) delivered as eight pulses at 106V for 20 ms with 200 ms intervals. […] Equally sized areas were analyzed using Living Image 2.20 software. […]
# PEO23 = assay: MTT cytotoxicity assay, PEO23; type: cell-based; conditions: PEO23, 72 h
# Experimental: as §1
# TSH1 = assay: MTT cytotoxicity assay, TSH1; type: cell-based; conditions: TSH1, 72 h
# Experimental: as §1
# B6-Ova = assay: MTT cytotoxicity assay, B6-Ova; type: cell-based; conditions: 72 h
# Experimental: as §1
# DLD1 = assay: MTT cytotoxicity assay, DLD1; type: cell-based; conditions: Homo sapiens, DLD-1, DLD1, 72 h
# Experimental: as §1
# [2] = test system: high molecular weight polyubiquitinated proteins in OVCAR3 cells; assay: Anti-ubiquitin immunoblot, OVCAR3; type: cell-based, human; conditions: Up284 0.5 μM, bortezomib 0.25 μM, ixazomib 0.25 μM, RA475 0.5 or 1 μM
# From the text: as §2, §3
# Fig 3 Impact of RA475 on proteasome function. […] Actin was used as loading control. […] C) 4T1 and HCC1806 cells stably expressing 4UbFL were treated with compounds at indicated doses for 4 h and imaged by IVIS200 after the addition of luciferin substrate (50 μL, 7mg/mL in PBS). D) Sub-confluent cultures of ES2 cells stably expressing 4UbFL were seeded at 10,000 cells/well in 96-well microtiter plates. At 18 h post transfection, cells were treated with compounds or vehicle (DMSO) at the doses indicated. After a 4 h incubation, the cells were lysed and the luciferase activity in each cell lysate was determined with a luciferase assay kit (Promega) according to the manufacturer’s instructions. Bioluminescence was measured by using a luminometer (Glomax Multidetection system, Promega) E) A patch was shaved of hair on one leg of CD-1 mice, and 10 μg 4UbFL plasmid in 20 μL of PBS was injected into the quadriceps femoralis muscle followed immediately by injection of the 2 Needle Array to 5 mm depth encompassing the injection site and square wave electroporation (ElectroSquarePorator 833, BTX-2 Needle array 5mm gap, Harvard apparatus) delivered as eight pulses at 106V for 20 ms with 200 ms intervals. One day post electroporation, mice were anesthetized with isoflurane, injected IP with luciferin (0.3 mg in 100 μL water) and optical imaging was performed to determine basal level luciferase expression. Images were acquired for 10 min with a Xenogen IVIS 200 (Caliper, Hopkinton, MA). Equally sized areas were analyzed using Living Image 2.20 software. Mice were imaged weekly during treatment. […]
compound,measurement,setting,value
"N#Cc1ccc(/C=C2/C(=O)/C(=C/c3ccc(C#N)cc3)C23CCNCC3)cc1 [Up284, reference compound]",IC50,HepG2,0.09 µM
same,IC50,MC38,0.06 µM
same,IC50,"SKMEL2; SK-MEL-2, SKMEL2, 72 h, MTT, read-out: IC50",0.07 µM
same,IC50,PEA1 cells,0.219 µM
same,IC50,A549,0.09 µM
same,IC50,HFF,> 2.5 µM
same,accumulation of high molecular weight polyubiquitinated proteins,[1],robust accumulation of polyUb
same,IC50,PEO23,0.112 µM
same,IC50,TSH1,0.07 µM
same,IC50,B6-Ova,0.05 µM
same,IC50,DLD1,0.11 µM
same,forms of polyUb induced,[2],induced forms of polyUb that did not run into the gel
"Cl.Cl.N#Cc1ccc(/C=C2/C(=O)/C(=C/c3ccc(C#N)cc3)C23CCN(C(=N)N)CC3)cc1 [RA475, 1,3-bis((E)-4-cyanobenzylidene)-2-oxo-7-azaspiro[3.5]nonane-7-carboximidamide dihydrochloride]",IC50,HepG2,0.241 µM
same,IC50,MC38,0.446 µM
same,IC50,"SKMEL2; SK-MEL-2, 72 h",0.156 µM
same,IC50,PEA1 cells,0.406 µM
same,cytotoxic effect after wash-out,"PEA1 cells; PEA1, RA475 1 h then fresh medium 71 h vs continuous 72 h",reduced its cytotoxic effect
same,synergy with cisplatin for cytotoxicity,"PEA1 cells; PEA1, checker board, 72 h, Synergy Finder",mild synergy
same,IC50,A549,0.219 µM
same,IC50,HFF,> 2.5 µM
same,accumulation of high molecular weight polyubiquitinated proteins,[1],robust accumulation of polyUb in dose dependent manner
same,IC50,PEO23,0.297 µM
same,IC50,TSH1,0.114 µM
same,IC50,B6-Ova,0.07 µM
same,IC50,DLD1,0.495 µM
same,forms of polyUb induced,[2],induced forms of polyUb that did not run into the gel

# From paper PMC11239005, “Preclinical studies of RA475, a guanidine-substituted spirocyclic candidate RPN13/ADRM1 inhibitor for treatment of ovarian cancer” (PLOS ONE, 2024)
